Assay results published in patent US10208288B2, “Differentiation of human embryonic stem cells into pancreatic endocrine cells” (Janssen Biotech, Inc., priority 2012, dated 2019).

Test system: cells of the human embryonic stem cell line H1 differentiated to stage 6
Assay: Immunostaining for NKX2.2 in stage 6 cultures
Format: cell-based
Details: 10 μM at stage 6, immunostaining; in control cultures NKX2.2+ cells distributed uniformly
Protocol: Cells of the human embryonic stem cell line H1 (hESC H1, passage 40) were seeded as single cells at 1×10^5 cells/cm^2 on MATRIGEL™ (1:30 dilution; BD Biosciences, NJ) coated dishes in mTeSR®1 media (StemCell Technologies, Vancouver, Canada) supplemented with 10 μM of Y27632. Forty-eight hours post seeding, cultures were washed in incomplete PBS (phosphate buffered saline without Mg or Ca). Cultures were differentiated into pancreatic endoderm/endocrine lineages as follows: • a) Stage 1 (Definitive Endoderm (DE)—3 days): Cells were cultured for one day in stage 1 media (see Example 1, above). Cells were then cultured for an additional day in MCDB-131 medium supplemented with 0.1% fatty acid-free BSA, 0.0012 g/ml sodium bicarbonate, 1× GlutaMax™, 4.5 mM D-Glucose, 100 ng/ml GDF8, and 0.1 μM MCX compound. […]

For CCCCCCCCCCCCC/C=C/[C@@H](O)[C@@H](N)COP(=O)(O)O [S1P, sphingosine-1-phosphate], the “NKX2.2+ cells in endocrine clusters” value was “enriched for NKX2.2+ cells”.
